Results taken from BindingDB's records for doi:10.1124/jpet.102.047092 (Case Western Reserve University, 2003).

What was measured:
[1] = biological target: Metabotropic glutamate receptor 6 (Rattus norvegicus, UniProt P35349)
[2] = biological target: Metabotropic glutamate receptor 8 (Rattus norvegicus, UniProt P70579)
[3] = biological target: Neuronal acetylcholine receptor subunit alpha-3 (Homo sapiens, UniProt P32297)
Histamine H4 receptor = Histamine H4 receptor (Homo sapiens, UniProt Q9H3N8)
Chain of Histamine H4 receptor (Q9H3N8 whole entry): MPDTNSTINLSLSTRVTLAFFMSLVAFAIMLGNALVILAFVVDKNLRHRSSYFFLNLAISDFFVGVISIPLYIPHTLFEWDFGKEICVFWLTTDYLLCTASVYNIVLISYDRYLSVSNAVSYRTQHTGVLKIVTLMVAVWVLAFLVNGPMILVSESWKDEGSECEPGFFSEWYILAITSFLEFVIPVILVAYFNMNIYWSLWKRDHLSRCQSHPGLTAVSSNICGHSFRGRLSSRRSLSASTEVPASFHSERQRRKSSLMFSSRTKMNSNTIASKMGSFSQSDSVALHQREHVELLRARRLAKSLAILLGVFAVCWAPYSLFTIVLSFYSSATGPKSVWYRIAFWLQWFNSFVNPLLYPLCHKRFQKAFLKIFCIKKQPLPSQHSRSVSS

[4] = biological target: Metabotropic glutamate receptor 2 (Rattus norvegicus) (UniProt P31421)
[5] = biological target: Metabotropic glutamate receptor 5 (Rattus norvegicus, UniProt P31424)
Chain of Metabotropic glutamate receptor 5 (P31424 whole entry): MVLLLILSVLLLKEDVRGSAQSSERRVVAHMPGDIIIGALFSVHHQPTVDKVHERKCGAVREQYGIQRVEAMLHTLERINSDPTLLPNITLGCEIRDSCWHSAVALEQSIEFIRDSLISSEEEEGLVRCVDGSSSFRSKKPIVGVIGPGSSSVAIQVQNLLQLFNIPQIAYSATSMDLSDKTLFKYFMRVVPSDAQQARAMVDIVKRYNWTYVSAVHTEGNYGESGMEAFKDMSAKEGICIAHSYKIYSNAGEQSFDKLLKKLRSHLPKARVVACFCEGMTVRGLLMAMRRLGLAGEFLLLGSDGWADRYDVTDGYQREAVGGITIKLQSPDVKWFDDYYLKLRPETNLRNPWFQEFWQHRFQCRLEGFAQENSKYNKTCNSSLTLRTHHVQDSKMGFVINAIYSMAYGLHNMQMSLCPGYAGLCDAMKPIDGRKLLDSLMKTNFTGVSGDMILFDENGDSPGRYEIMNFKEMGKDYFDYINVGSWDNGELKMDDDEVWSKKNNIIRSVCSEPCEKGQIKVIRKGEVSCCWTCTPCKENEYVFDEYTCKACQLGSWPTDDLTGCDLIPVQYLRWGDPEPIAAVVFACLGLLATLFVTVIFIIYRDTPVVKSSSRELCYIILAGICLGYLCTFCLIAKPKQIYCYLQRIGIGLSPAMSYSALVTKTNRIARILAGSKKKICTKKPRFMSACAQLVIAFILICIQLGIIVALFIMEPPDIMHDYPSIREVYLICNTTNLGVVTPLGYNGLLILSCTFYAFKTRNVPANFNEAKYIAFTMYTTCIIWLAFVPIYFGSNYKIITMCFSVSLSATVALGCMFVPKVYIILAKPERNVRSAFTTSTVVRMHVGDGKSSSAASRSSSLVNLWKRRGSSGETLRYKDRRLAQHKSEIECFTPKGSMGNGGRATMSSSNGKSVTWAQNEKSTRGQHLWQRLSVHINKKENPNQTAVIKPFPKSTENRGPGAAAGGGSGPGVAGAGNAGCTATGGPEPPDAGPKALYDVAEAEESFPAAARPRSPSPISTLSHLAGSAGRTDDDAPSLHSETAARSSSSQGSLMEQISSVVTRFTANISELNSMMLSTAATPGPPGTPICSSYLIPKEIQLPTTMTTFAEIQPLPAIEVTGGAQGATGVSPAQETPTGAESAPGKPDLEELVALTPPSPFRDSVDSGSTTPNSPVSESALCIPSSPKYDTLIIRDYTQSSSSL

[6] = biological target: Neuronal acetylcholine receptor subunit alpha-4 (Homo sapiens, UniProt P43681)
[7] = biological target: Beta-1 adrenergic receptor (Rattus norvegicus, UniProt P18090)
Chain of Beta-1 adrenergic receptor (P18090 whole entry): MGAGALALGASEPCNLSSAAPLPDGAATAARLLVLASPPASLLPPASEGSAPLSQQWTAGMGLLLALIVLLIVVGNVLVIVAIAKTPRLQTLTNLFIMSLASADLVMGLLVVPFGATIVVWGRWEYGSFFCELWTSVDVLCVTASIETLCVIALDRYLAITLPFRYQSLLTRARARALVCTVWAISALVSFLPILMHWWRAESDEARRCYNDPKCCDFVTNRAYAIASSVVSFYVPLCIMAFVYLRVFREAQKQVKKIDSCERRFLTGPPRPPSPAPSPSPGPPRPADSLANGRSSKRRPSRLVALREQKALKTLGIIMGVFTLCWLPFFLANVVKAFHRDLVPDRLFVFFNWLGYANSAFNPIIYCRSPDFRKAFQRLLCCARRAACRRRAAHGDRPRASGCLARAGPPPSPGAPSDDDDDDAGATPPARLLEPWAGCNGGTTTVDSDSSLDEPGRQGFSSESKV

Histamine H1 receptor = Histamine H1 receptor (Homo sapiens, UniProt P35367)
Cannabinoid receptor 1 = Cannabinoid receptor 1 (Rattus norvegicus, UniProt P20272)
Histamine H2 receptor = Histamine H2 receptor (Homo sapiens, UniProt P25021)
[8] = biological target: Voltage-dependent L-type calcium channel subunit alpha-1C (Rattus norvegicus, UniProt P22002)
[9] = biological target: Metabotropic glutamate receptor 4 (Rattus norvegicus, UniProt P31423)
[10] = biological target: Neuronal acetylcholine receptor subunit alpha-4 (Rattus norvegicus, UniProt P09483)
Nischarin = Nischarin (Rattus norvegicus, UniProt Q4G017)
[11] = biological target: Neuronal acetylcholine receptor subunit alpha-2 (Homo sapiens, UniProt Q15822)
[12] = biological target: Metabotropic glutamate receptor 1 (Rattus norvegicus, UniProt P23385)
Chain of Metabotropic glutamate receptor 1 (P23385 whole entry): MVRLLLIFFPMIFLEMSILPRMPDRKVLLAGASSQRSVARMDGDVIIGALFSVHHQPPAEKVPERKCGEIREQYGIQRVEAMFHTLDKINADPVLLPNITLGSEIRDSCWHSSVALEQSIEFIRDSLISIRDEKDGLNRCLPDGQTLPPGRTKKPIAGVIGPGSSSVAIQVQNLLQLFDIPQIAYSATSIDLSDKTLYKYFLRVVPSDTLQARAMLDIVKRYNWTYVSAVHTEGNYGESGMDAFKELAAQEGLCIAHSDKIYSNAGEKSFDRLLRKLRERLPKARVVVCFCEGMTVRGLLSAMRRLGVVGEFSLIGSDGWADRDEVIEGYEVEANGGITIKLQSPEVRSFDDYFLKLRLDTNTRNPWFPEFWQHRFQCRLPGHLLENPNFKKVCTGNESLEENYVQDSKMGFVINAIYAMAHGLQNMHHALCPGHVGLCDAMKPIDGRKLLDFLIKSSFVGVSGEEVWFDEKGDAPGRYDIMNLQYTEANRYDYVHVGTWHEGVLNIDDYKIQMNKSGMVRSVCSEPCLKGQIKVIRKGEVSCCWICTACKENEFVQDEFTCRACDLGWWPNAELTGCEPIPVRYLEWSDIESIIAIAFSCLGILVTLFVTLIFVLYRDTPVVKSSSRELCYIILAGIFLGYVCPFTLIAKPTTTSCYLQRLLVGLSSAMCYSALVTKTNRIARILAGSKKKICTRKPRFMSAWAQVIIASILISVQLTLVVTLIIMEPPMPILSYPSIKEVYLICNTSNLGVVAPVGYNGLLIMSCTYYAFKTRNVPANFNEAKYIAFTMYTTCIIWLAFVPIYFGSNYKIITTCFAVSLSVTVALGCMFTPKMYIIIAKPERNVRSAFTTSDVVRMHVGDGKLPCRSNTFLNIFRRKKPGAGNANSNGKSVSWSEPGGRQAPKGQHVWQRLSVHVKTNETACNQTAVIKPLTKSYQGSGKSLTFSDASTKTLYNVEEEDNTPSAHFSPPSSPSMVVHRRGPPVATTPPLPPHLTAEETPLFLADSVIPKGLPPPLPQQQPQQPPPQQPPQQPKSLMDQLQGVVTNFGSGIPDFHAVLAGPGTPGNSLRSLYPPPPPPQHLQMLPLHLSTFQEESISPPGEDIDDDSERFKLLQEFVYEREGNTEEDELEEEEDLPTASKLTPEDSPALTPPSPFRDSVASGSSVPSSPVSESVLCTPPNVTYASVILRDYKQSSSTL

Chain of Metabotropic glutamate receptor 8 (P70579 whole entry): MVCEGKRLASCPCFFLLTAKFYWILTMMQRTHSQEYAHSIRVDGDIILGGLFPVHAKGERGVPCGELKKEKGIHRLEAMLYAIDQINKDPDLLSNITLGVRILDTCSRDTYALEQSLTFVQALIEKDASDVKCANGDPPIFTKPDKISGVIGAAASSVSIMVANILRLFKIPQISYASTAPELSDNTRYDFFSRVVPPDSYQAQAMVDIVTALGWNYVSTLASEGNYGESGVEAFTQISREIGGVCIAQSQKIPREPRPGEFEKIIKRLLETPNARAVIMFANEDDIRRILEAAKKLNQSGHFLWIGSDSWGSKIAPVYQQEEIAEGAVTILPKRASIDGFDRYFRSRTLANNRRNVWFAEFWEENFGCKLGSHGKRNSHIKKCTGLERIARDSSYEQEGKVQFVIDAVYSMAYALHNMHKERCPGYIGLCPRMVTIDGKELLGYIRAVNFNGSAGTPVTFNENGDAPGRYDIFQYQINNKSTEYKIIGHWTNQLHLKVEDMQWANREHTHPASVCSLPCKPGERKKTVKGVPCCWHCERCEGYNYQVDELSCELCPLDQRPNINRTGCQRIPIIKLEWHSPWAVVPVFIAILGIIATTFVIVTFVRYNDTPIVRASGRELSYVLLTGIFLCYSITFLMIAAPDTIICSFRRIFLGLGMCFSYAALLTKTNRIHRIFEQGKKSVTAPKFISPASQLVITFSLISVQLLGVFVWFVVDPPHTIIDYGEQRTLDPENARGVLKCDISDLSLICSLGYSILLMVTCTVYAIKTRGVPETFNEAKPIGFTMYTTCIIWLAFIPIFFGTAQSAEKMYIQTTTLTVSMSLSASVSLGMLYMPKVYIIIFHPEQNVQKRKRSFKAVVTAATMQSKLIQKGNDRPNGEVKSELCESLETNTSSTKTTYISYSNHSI
Chain of Metabotropic glutamate receptor 6 (P35349 whole entry): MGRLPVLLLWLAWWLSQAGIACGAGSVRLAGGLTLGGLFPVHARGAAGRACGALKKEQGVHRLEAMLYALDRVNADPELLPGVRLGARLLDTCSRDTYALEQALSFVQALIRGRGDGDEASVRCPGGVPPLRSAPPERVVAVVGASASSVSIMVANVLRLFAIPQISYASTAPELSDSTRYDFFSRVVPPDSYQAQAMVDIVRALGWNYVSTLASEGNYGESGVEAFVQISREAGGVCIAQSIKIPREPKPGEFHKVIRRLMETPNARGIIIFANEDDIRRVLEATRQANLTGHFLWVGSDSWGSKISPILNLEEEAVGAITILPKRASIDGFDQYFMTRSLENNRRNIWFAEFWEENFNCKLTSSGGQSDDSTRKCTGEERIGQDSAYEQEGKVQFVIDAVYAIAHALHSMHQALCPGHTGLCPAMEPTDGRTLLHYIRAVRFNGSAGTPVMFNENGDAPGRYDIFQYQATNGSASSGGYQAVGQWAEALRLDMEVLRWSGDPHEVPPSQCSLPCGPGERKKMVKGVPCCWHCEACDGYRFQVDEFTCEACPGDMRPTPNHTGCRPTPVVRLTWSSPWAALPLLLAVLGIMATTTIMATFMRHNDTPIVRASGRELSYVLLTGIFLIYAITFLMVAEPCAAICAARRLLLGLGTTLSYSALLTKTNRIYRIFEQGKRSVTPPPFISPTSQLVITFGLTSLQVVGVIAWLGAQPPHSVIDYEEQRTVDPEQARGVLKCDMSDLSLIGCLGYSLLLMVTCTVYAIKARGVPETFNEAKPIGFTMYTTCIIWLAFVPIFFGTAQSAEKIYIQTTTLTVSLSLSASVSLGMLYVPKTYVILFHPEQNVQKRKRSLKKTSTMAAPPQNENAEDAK

| SMILES | EC50 [1] [µM] | EC50 [2] [µM] | Ki [3] [µM] | Ki (Histamine H4 receptor) [µM] | EC50 [4] [µM] | EC50 [5] [µM] | Ki [6] [µM] | Ki [7] [µM] | Ki (Histamine H1 receptor) [µM] | Ki (Cannabinoid receptor 1) [µM] | Ki (Histamine H2 receptor) [µM] | Ki [8] [µM] | EC50 [9] [µM] | Ki [10] [µM] | Ki (Nischarin) [µM] | Ki [11] [µM] | EC50 [12] [µM] |
| --- | --- | --- | --- | --- | --- | --- | --- | --- | --- | --- | --- | --- | --- | --- | --- | --- | --- |
| N[C@@H](CCP(=O)(O)O)C(=O)O | 0.398 | 1.26 |  |  |  |  |  |  |  |  |  |  |  |  |  |  |  |
| N[C@@H](CCS(=O)(=O)O)C(=O)O [L-homocysteic acid] | 7.94 | > 10 | > 10 | > 10 | > 10 | 6.31 | > 10 | > 10 | > 10 | > 10 | > 10 | > 10 | > 10 | > 10 | > 10 | > 10 | > 10 |
